In assay [1] the test system is TanUPO. The settings on record: read-out: apparent kinetic parameters; co-substrate H2O2 2 mM; McIlvaine buffer pH 4.5.
Assay [2] concerns T1, TanUPO.
T1 construct: native wild-type purified from culture of own fungal isolate; glycosylated heme-thiolate protein
The assay is described as follows: HPLC-ELSD of […],15-EET formation. The assay is classed as biochemical, Truncatella angustata. The settings on record: co-substrate H2O2 (from glucose/glucose oxidase); 20 mM phosphate pH 7.0, 30 °C, 20% (v/v) acetone; sigmoidal kinetics (Hill).

Our source for the Km values is PMC9322767, “Novel Unspecific Peroxygenase from Truncatella angustata Catalyzes the Synthesis of Bioactive Lipid Mediators” (Microorganisms, 2022).

Structures can show the parent of a compound that is named as a salt. Where two headings read alike, the source gives them in different places.

Take `CCn1c(=NN=c2sc3cc(S(=O)(=O)O)ccc3n2CC)sc2cc(S(=O)(=O)O)ccc21` [ABTS, 2,2′-azino-di(3-ethylbenzthiazoline-6-sulfonate) di-ammonium salt]: in assay [1], the Km came out at 257 µM.
For `CCCCC/C=C\C/C=C\C/C=C\C/C=C\CCCC(=O)O` [arachidonic acid, (5Z,8Z,11Z,14Z)-5,8,11,14-eicosatetraenoic acid], in assay [2], the Km was ~200 µM.
